Assays:
[1] = tested on: HeLa; test: Antiproliferative activity against human HeLa cells assessed as reduction in cell viability after 48 hrs by MTT assay; assay type: functional
[2] = Antiproliferative activity against human MCF7/AZ cells assessed as reduction in cell viability after 48 hrs by MTT assay; assay type: functional
[3] = tested on: Jurkat; test: Antiproliferative activity against human Jurkat cells assessed as reduction in cell viability after 48 hrs by MTT assay; assay type: functional
[4] = tested on: Jurkat; test: Induction of apoptosis in human Jurkat cells assessed as apoptotic cells at 50 uM after 24 hrs using annexin-V/Propidium iodide by flow cytometry; assay type: functional
[5] = Antiproliferative activity against human OE21 cells assessed as reduction in cell viability after 72 hrs by MTT assay; assay type: functional; conditions: OE21, 72 h
[6] = tested on: A549; test: Antiproliferative activity against human A549 cells assessed as reduction in cell viability after 72 hrs by MTT assay; assay type: functional; conditions: A549, 72 h
[7] = tested on: PC-3; test: Antiproliferative activity against human PC3 cells assessed as reduction in cell viability after 72 hrs by MTT assay; assay type: functional; conditions: PC-3, 72 h
[8] = Antiproliferative activity against human Hs683 cells assessed as reduction in cell viability after 72 hrs by MTT assay; assay type: functional; conditions: Hs 683, 72 h
[9] = tested on: LoVo; test: Antiproliferative activity against human LoVo cells assessed as reduction in cell viability after 72 hrs by MTT assay; assay type: functional
[10] = Antiproliferative activity against human U373 cells assessed as reduction in cell viability after 72 hrs by MTT assay; assay type: functional, U-373MG ATCC; conditions: U373 MG
[11] = tested on: SK-MEL-28; test: Antiproliferative activity against human SK-MEL-28 cells assessed as reduction in cell viability after 72 hrs by MTT assay; assay type: functional; conditions: SK-MEL-28, 72 h

| Structure (SMILES) | GI50 [1] [µM] | GI50 [2] [µM] | GI50 [3] [µM] | Activity [4] [%] | GI50 [5] [µM] | GI50 [6] [µM] | GI50 [7] [µM] | GI50 [8] [µM] | GI50 [9] [µM] | GI50 [10] [µM] | GI50 [11] [µM] |
| --- | --- | --- | --- | --- | --- | --- | --- | --- | --- | --- | --- |
| N#CC1=C(N)OC2=C(C(=O)c3ccccc3C2=O)C1c1ccc(OC(F)(F)F)cc1 (stereo not drawn) | 4.3 | 7.1 | 105 | 13.5 | – | – | – | – | – | – | – |
| N#CC1=C(N)OC2=C(C(=O)c3ccccc3C2=O)C1c1ccc(O)cc1 (stereo not drawn) | 30.6 | 8.6 | 85 | 16.7 | – | – | – | – | – | – | – |
| CC(C)c1ccc(C2C(C#N)=C(N)OC3=C2C(=O)c2ccccc2C3=O)cc1 (stereo not drawn) | 62.5 | 34 | 80.6 | 2.9 | – | – | – | – | – | – | – |
| N#CC1=C(N)OC2=C(C(=O)c3ccccc3C2=O)C1c1c(Cl)cccc1Cl (stereo not drawn) | 5.3 | 3.1 | 172 | 5.1 | 17.4 | 40.6 | 6.2 | 19.3 | 4.3 | 12.8 | 17.1 |
| N#CC1=C(N)OC2=C(C(=O)c3ccccc3C2=O)C1c1ccc(C(=O)O)cc1 (stereo not drawn) | 119 | 94.4 | 332 | 4.1 | – | – | – | – | – | – | – |
| N#CC1=C(N)OC2=C(C(=O)c3ccccc3C2=O)C1c1ccccc1[N+](=O)[O-] (stereo not drawn) | 11.2 | 8.3 | 16.8 | 25 | – | – | – | – | – | – | – |
| N#CC1=C(N)OC2=C(C(=O)c3ccccc3C2=O)C1c1ccccc1Br (stereo not drawn) | 31.6 | 26.3 | 30.7 | 41.7 | – | – | – | – | – | – | – |
| Cc1ccc(C2C(C#N)=C(N)OC3=C2C(=O)c2ccccc2C3=O)o1 (stereo not drawn) | 54.3 | 51.6 | 47.8 | 57.8 | – | – | – | – | – | – | – |
| CC1(C)CCC2=C(O1)c1ccccc1C(=O)C2=O [LAPACHONE] | 4.6 | 6 | 6.1 | 51 | 0.6 | 0.8 | 0.01 | 0.4 | 0.3 | 0.4 | 0.6 |
| N#CC1=C(N)OC2=C(C(=O)c3ccccc3C2=O)C1c1ccccc1Cl (stereo not drawn) | 20.5 | 19 | 185 | 6.3 | – | – | – | – | – | – | – |
| N#CC1=C(N)OC2=C(C(=O)c3ccccc3C2=O)C1c1ccc([N+](=O)[O-])cc1 (stereo not drawn) | 16.8 | 9.8 | 24.3 | 23.1 | – | – | – | – | – | – | – |
| N#CC1=C(N)OC2=C(C(=O)c3ccccc3C2=O)C1c1ccc(Cl)cc1 (stereo not drawn) | 31.7 | 24 | 105 | 23.8 | – | – | – | – | – | – | – |
| N#CC1=C(N)OC2=C(C(=O)c3ccccc3C2=O)C1c1cccc(Cl)c1 (stereo not drawn) | 77.5 | 59.8 | 108 | 22 | – | – | – | – | – | – | – |
| N#CC1=C(N)OC2=C(C(=O)c3ccccc3C2=O)C1c1cccs1 (stereo not drawn) | 94 | 36.9 | 82.4 | 11.2 | – | – | – | – | – | – | – |
| N#CC1=C(N)OC2=C(C(=O)c3ccccc3C2=O)C1c1ccccc1 (stereo not drawn) | 23.5 | 18.5 | 43.3 | 16.7 | – | – | – | – | – | – | – |
| N#CC1=C(N)OC2=C(C(=O)c3ccccc3C2=O)C1c1cccc(Oc2ccccc2)c1 (stereo not drawn) | 4 | 2.2 | 17.9 | 50 | 2.2 | 5 | 6.2 | 5 | 3.4 | 3.4 | 4.5 |
| CC1(C)CCC2=C(O1)C(=O)c1ccccc1C2=O [ALPHA-LAPACHONE] | 25 | 16.7 | 75 | 7.4 | 22.7 | 16.3 | 13 | 9 | 24.4 | 23.1 | 4.7 |
| N#CC1=C(N)OC2=C(C(=O)c3ccccc3C2=O)C1c1cccnc1 (stereo not drawn) | 14.2 | 3.4 | 20.4 | 20.8 | – | – | – | – | – | – | – |
| N#CC1=C(N)OC2=C(C(=O)c3ccccc3C2=O)C1c1c(F)cccc1Cl (stereo not drawn) | 34.4 | 8 | 52.3 | 21.3 | – | – | – | – | – | – | – |
| N#CC1=C(N)OC2=C(C(=O)c3ccccc3C2=O)C1c1ccncc1 (stereo not drawn) | 14.5 | 6 | 23.9 | 28.6 | – | – | – | – | – | – | – |
| N#CC1=C(N)OC2=C(C(=O)c3ccccc3C2=O)C1c1ccc(C(F)(F)F)cc1 (stereo not drawn) | 11.8 | 5.6 | 80.5 | 15.5 | – | – | – | – | – | – | – |
| N#CC1=C(N)OC2=C(C(=O)c3ccccc3C2=O)C1c1cccc(Br)c1 (stereo not drawn) | 16.1 | 28.6 | 20 | 48.4 | – | – | – | – | – | – | – |
| N#CC1=C(N)OC2=C(C(=O)c3ccccc3C2=O)C1c1ccc(-c2ccccc2)cc1 (stereo not drawn) | 23.6 | 26 | 122 | 11.2 | – | – | – | – | – | – | – |
| N#CC1=C(N)OC2=C(C(=O)c3ccccc3C2=O)C1c1cccc([N+](=O)[O-])c1 (stereo not drawn) | 9.1 | 10.8 | 19.1 | 33.6 | – | – | – | – | – | – | – |
| N#CC1=C(N)OC2=C(C(=O)c3ccccc3C2=O)C1c1ccc(Br)cc1 (stereo not drawn) | 30 | 22.8 | 38.3 | 40.1 | – | – | – | – | – | – | – |

From ChEMBL document CHEMBL2057125, “Structural simplification of bioactive natural products with multicomponent synthesis. 4. 4H-pyrano-[2,3-b]naphthoquinones with anticancer activity” (2012)
